Data reported in ChEMBL document CHEMBL5108024, “New C-6 functionalized quinoline NorA inhibitors strongly synergize with ciprofloxacin against planktonic and biofilm growing resistant Staphylococcus aureus strains” (Eur J Med Chem, 2022).
≈ marks a conversion by molar mass, not a printed value. Where “and” joins values, the source holds several entries; their conditions need not be identical. Equal entries are not always repeated.

Legend:
[1] = test system: Staphylococcus aureus; assay: Antibacterial activity against ciprofloxacin-resistant Staphylococcus aureus 1199B overexpressing norA and harboring A116E grlA mutant assessed as inhibition of bacterial growth by broth microdilution method; format: functional
[2] = test system: Staphylococcus aureus; assay: Antibiofilm activity against Staphylococcus aureus 1199B overexpressing norA and harboring A116E grlA mutant assessed as biofilm eradication incubated for 24 hrs by Calgary biofilm device assay; format: functional
[3] = test system: Staphylococcus aureus; assay: Antibacterial activity against Staphylococcus aureus K2378 harbouring norA promoting and coding region assessed as inhibition of bacterial growth by broth microdilution method; format: functional
[4] = test system: Staphylococcus aureus; assay: Antibiofilm activity against wild type Staphylococcus aureus 1199 assessed as biofilm eradication incubated for 24 hrs by Calgary biofilm device assay; format: functional
[5] = test system: Staphylococcus aureus; assay: Antibiofilm activity against norA deleted Staphylococcus aureus K1902 assessed as biofilm eradication incubated for 24 hrs by Calgary biofilm device assay; format: functional
[6] = test system: Staphylococcus aureus; assay: Antibacterial activity against norA deleted Staphylococcus aureus K1902 assessed as inhibition of bacterial growth by broth microdilution method; format: functional
[7] = test system: Staphylococcus aureus; assay: Antibacterial activity against ciprofloxacin-susceptible wild type Staphylococcus aureus 1199 assessed as inhibition of bacterial growth by broth microdilution method; format: functional
[8] = Cytotoxicity against human THP-1 cells assessed as cell viability incubated for 24 hrs by MTT assay; format: toxicity, cell-based
[9] = test system: Staphylococcus aureus; assay: Synergistic antibiofilm activity against wild type Staphylococcus aureus 1199 assessed as biofilm eradication by measuring fold reduction in ciprofloxacin MBEC at 3.13 ug/ml incubated for 24 hrs by Calgary biofilm device assay; format: functional; details: dose 3.13 µg/ml
[10] = test system: Staphylococcus aureus; assay: Synergistic antibiofilm activity against Staphylococcus aureus 1199B overexpressing norA and harboring A116E grlA mutant assessed as biofilm eradication by measuring ciprofloxacin MBEC at 3.13 ug/ml incubated for 24 hrs by Calgary biofilm device assay; format: functional; details: dose 3.13 µg/ml
[11] = test system: Staphylococcus aureus; assay: Synergistic antibiofilm activity against wild type Staphylococcus aureus 1199 assessed as biofilm eradication by measuring ciprofloxacin MBEC at 3.13 ug/ml incubated for 24 hrs by Calgary biofilm device assay; format: functional; details: dose 3.13 µg/ml
[12] = test system: Staphylococcus aureus; assay: Synergistic antibacterial activity against Staphylococcus aureus K2378 overexpressing norA assessed as fold reduction in ciprofloxacin MIC at 0.2 to 12.5 ug/ml by checkerboard assay; format: functional; details: dose 0.2-12.5 µg/ml
[13] = test system: Staphylococcus aureus; assay: (§1) Synergistic bactericidal activity against Staphylococcus aureus 1199B overexpressing norA and harboring A116E grlA mutant assessed as reduction in bacterial count by measuring log reduction in colony forming count per ml at 6.25 ug/ml incubated for 6 hrs in presence of ciprofloxacin at 0.25 to 1 times MIC by time kill assay; format: functional; details: dose 6.25 µg/ml
[14] = test system: Staphylococcus aureus; assay: Inhibition of EtBr efflux in ciprofloxacin-resistant Staphylococcus aureus 1199B overexpressing norA and harboring A116E grlA mutant assessed as reduction in fluorescence intensity at 10 uM measured for 5 mins by microplate reader analysis relative to control; format: functional
[15] = test system: Staphylococcus aureus; assay: as §1, with “for 4” for “for 6”; format: functional; details: dose 6.25 µg/ml
[16] = Cytotoxicity against human A549 cells assessed as cell viability at 3.13 ug/ml incubated for 24 hrs by MTT assay relative to control; format: toxicity, cell-based; details: at 3.13 µg/mL, read-out: Activity
[17] = test system: Staphylococcus aureus; assay: Synergistic antibacterial activity against ciprofloxacin-resistant Staphylococcus aureus 1199B overexpressing norA and harboring A116E grlA mutant assessed as fold reduction in ciprofloxacin MIC at 6.25 uM by broth microdilution method; format: functional
[18] = Cytotoxicity against human THP-1 cells assessed as cell viability at 3.13 ug/ml incubated for 24 hrs by MTT assay relative to control; format: toxicity, cell-based; details: at 3.13 µg/mL, read-out: Activity
[19] = test system: Staphylococcus aureus; assay: Potentiation of ciprofloxacin-induced antibacterial activity against Staphylococcus aureus 1199B overexpressing norA and harboring A116E grlA mutant assessed as post-antibiotic effect by measuring log reduction in colony forming unit per ml at 6.25 ug/ml preincubated for 1 hr followed by compound washout and measured after 5 hrs; format: functional; details: dose 6.25 µg/ml
[20] = test system: Staphylococcus aureus; assay: Synergistic antibacterial activity against Staphylococcus aureus 1199B overexpressing norA and harboring A116E grlA mutant assessed as eight fold minimum potentiating concentration incubated in presence of ciprofloxacin by checkerboard assay; format: functional
[21] = Cytotoxicity against human THP-1 cells assessed as cell viability at 12.5 ug/ml incubated for 24 hrs by MTT assay relative to control; format: toxicity, cell-based; details: at 12.5 µg/mL, read-out: Activity
[22] = test system: Staphylococcus aureus; assay: Synergistic antibiofilm activity against Staphylococcus aureus 1199B overexpressing norA and harboring A116E grlA mutant assessed as biofilm eradication by measuring fold reduction in ciprofloxacin MBEC at 3.13 ug/ml incubated for 24 hrs by Calgary biofilm device assay; format: functional; details: dose 3.13 µg/ml
[23] = test system: Staphylococcus aureus; assay: Synergistic antibiofilm activity against norA deleted Staphylococcus aureus K1902 assessed as biofilm eradication by measuring ciprofloxacin MBEC at 3.13 ug/ml incubated for 24 hrs by Calgary biofilm device assay; format: functional; details: dose 3.13 µg/ml
[24] = test system: Staphylococcus aureus; assay: Inhibition of EtBr efflux in ciprofloxacin-resistant Staphylococcus aureus 1199B overexpressing norA and harboring A116E grlA mutant assessed as reduction in fluorescence intensity at 50 uM measured for 5 mins by microplate reader analysis relative to control; format: functional
[25] = Cytotoxicity against human A549 cells assessed as cell viability at 12.5 ug/ml incubated for 24 hrs by MTT assay relative to control; format: toxicity, cell-based; details: at 12.5 µg/mL, read-out: Activity
[26] = test system: Staphylococcus aureus; assay: Potentiation of ciprofloxacin-induced antibacterial activity against Staphylococcus aureus 1199B overexpressing norA and harboring A116E grlA mutant assessed as time for post-antibiotic effect at 6.25 ug/ml preincubated for 1 hr followed by compound washout and measured after 5 hrs; format: functional; details: dose 6.25 µg/ml
[27] = Selectivity index, ratio of CC50 for cytotoxicity against human THP-1 cells to MPC for synergistic antibacterial activity against Staphylococcus aureus 1199B overexpressing norA and harboring A116E grlA mutant assessed as four fold minimum potentiating concentration; format: toxicity, cell-based
[28] = test system: Staphylococcus aureus; assay: Synergistic antibacterial activity against Staphylococcus aureus 1199B overexpressing norA and harboring A116E grlA mutant assessed as four fold minimum potentiating concentration incubated in presence of ciprofloxacin by checkerboard assay; format: functional

SMILES	MIC [1]	MIC [3]	MIC [6]	MIC [7]	CC50 at 24 h [8]	MBEC [10]	MBEC [11]	fold change (FC) [12]	inhibition [14]	viability at 24 h, 3.13 ug/ml [16]	fold change (FC) [17]	viability at 24 h, 3.13 ug/ml [18]	viability at 24 h, 12.5 ug/ml [21]	inhibition [24]	viability at 24 h, 12.5 ug/ml [25]	also measured
O=C(O)c1cn(C2CC2)c2cc(N3CCNCC3)c(F)cc2c1=O [CIPROFLOXACIN]	10 µg/mL (≈ 30.2 µM)	0.63 µg/mL (≈ 1.9 µM)	0.15 µg/mL (≈ 0.453 µM)	0.08 µg/mL (≈ 0.241 µM)												MBEC [2]: 640 µg/mL; MBEC [4]: 20 µg/mL; MBEC [5]: 40 µg/mL
CCCOc1ccc(-c2cc(OCCN(CC)CC)c3cc(Oc4ccccc4)ccc3n2)cc1	> 50 µg/mL and > 531 µM	25 µg/mL (≈ 53.1 µM)	25 µg/mL (≈ 53.1 µM)	> 50 µg/mL	> 3.13 µg/mL	1.25 µg/mL	0.07 µg/mL	4	76.1%	80.1%	>=8	77.3%	8.2%	80.9%	84.8%	fold change (FC) [9]: 286; log(activity) [13]: 2; log(activity) [15]: 3; log(activity) [19]: 1; MPC [20]: 1.56 µg/mL; fold change (FC) [22]: 512; MBEC [23]: 40 µg/mL; Time [26]: 1.2 h
CCCOc1ccc(-c2cc(OCCN3CCCCCC3)c3cc(OCCC)ccc3n2)cc1	> 50 µg/mL and > 540 µM	> 50 µg/mL	> 50 µg/mL	> 50 µg/mL	> 3.13 µg/mL	2.5 µg/mL	0.07 µg/mL	4	78.8%	100%	8	70.3%	38.4%	82.3%	84.5%	selectivity ratio [27]: > 15; MPC [28]: 0.2 µg/mL
